≈ marks a conversion by molar mass, not a printed value.

The test system of assay [1] is Pseudomonas aeruginosa. The assay can be described thus: Antibacterial activity against Pseudomonas aeruginosa SG 137 B7 assessed as zone of inhibition at 50 ug/disc after 24 hrs by agar diffusion assay. It counts as functional. Particulars: SG 137 B7, 24 h, read-out: IZ.
For the next assay, the system named is HUVEC. The assay can be described thus: Antiproliferative activity against HUVEC. The format is functional. Particulars: Homo sapiens.
Assay [2] relates to Staphylococcus aureus. Kind of assay: Antibacterial activity against methicillin-resistant Staphylococcus aureus 134/93 R9 assessed as zone of inhibition at 50 ug/disc after 24 hrs by agar diffusion assay. The note with it: 134/93 R9, 24 h, read-out: IZ. It counts as functional.
For the next assay, the system named is Aspergillus terreus. Kind of assay: Antifungal activity against amphotericin-resistant Aspergillus terreus DSM 826 assessed as zone of inhibition at 50 ug/disc after 24 hrs by agar diffusion assay. The format is functional. The note with it: DSM 826, 24 h, read-out: IZ.
The next assay deals with Aspergillus niger. Kind of assay: Antifungal activity against Aspergillus niger DSM 737 assessed as zone of inhibition at 50 ug/disc after 24 hrs by agar diffusion assay. It counts as functional. The note with it: DSM 737, 24 h, read-out: IZ.
The test system of another assay is Aspergillus fumigatus. The assay can be described thus: Antifungal activity against Aspergillus fumigatus ATCC 46645 assessed as zone of inhibition at 50 ug/disc after 24 hrs by agar diffusion assay. It counts as functional. The note with it: ATCC 46645, 24 h, read-out: IZ.
In the next assay the test system is Escherichia coli. The assay can be described thus: Antibacterial activity against Escherichia coli 458 B4 assessed as zone of inhibition at 50 ug/disc after 24 hrs by agar diffusion assay. It counts as functional. Particulars: 458 B4, 24 h, read-out: IZ.
In a further assay the test system is HeLa. The assay can be described thus: Cytotoxicity against human HeLa cells. The format is functional.
The subject of assay [3] is Pseudomonas aeruginosa. Kind of assay: Antibacterial activity against Pseudomonas aeruginosa K 799/61 B9 assessed as zone of inhibition at 50 ug/disc after 24 hrs by agar diffusion assay. The format is functional. Particulars: K 799/61 B9, 24 h, read-out: IZ.
The subject of another assay is Enterococcus faecalis. The assay can be described thus: Antibacterial activity against vancomycin-resistant Enterococcus faecalis 1528 R10 assessed as zone of inhibition at 50 ug/disc after 24 hrs by agar diffusion assay. The format is functional. Particulars: 1528 R10, 24 h, read-out: IZ.
In assay [4] the test system is Sporobolomyces salmonicolor. Kind of assay: Antifungal activity against Sporidiobolus salmonicolor 549 H4 assessed as zone of inhibition at 50 ug/disc after 24 hrs by agar diffusion assay. It counts as functional. The note with it: 549 H4, 24 h, read-out: IZ.
The subject of a further assay is K562. The assay can be described thus: Antiproliferative activity against human K562 cells. The format is functional.
Another assay relates to Mycolicibacterium vaccae. The assay can be described thus: Antibacterial activity against Mycobacterium vaccae 10670 M4 assessed as zone of inhibition at 50 ug/disc after 24 hrs by agar diffusion assay. Particulars: 10670 M4, 24 h, read-out: IZ. The format is functional.
Assay [5] has as its system Staphylococcus aureus. The assay can be described thus: Antibacterial activity against Staphylococcus aureus 511 B3 assessed as zone of inhibition at 50 ug/disc after 24 hrs by agar diffusion assay. The note with it: 511 B3, 24 h, read-out: IZ. It counts as functional.
The test system of another assay is Candida albicans. Kind of assay: Antifungal activity against Candida albicans H8 assessed as zone of inhibition at 50 ug/disc after 24 hrs by agar diffusion assay. The format is functional. Particulars: H8, 24 h, read-out: IZ.
The next assay concerns Bacillus subtilis. Kind of assay: Antibacterial activity against Bacillus subtilis 6633 B1 assessed as zone of inhibition at 50 ug/disc after 24 hrs by agar diffusion assay. The format is functional. Particulars: 6633 B1, 24 h, read-out: IZ.
A further assay deals with Penicillium chrysogenum. Kind of assay: Antifungal activity against Penicillium notatum JP36 P1 assessed as zone of inhibition at 50 ug/disc after 24 hrs by agar diffusion assay. It counts as functional. Particulars: JP36 P1, 24 h, read-out: IZ.
A short description of assay [6]: Cytotoxicity against human MAXF 401NL cells by propidium iodide-based fluorescence assay. The format is functional, cell-based.
A short description of assay [7]: Cytotoxicity against human UXF 1138L cells by propidium iodide-based fluorescence assay. It counts as functional, cell-based.
Assay [8] is described as follows: Cytotoxicity against human PXF 1752L cells by propidium iodide-based fluorescence assay. It counts as functional, cell-based.
Assay [9] is described as follows: Cytotoxicity against human PRXF 22Rv1 cells by propidium iodide-based fluorescence assay. The format is functional, cell-based, CWR22R.
Assay [10] in a line: Cytotoxicity against human PAXF 1657L cells by propidium iodide-based fluorescence assay. The format is functional, cell-based.
A short description of assay [11]: Cytotoxicity against human CXF HT29 cells by propidium iodide-based fluorescence assay. The format is functional, cell-based. The note with it: HT-29.
The nature of assay [12]: Cytotoxicity against human LXFA 629L cells by propidium iodide-based fluorescence assay. The format is functional, cell-based.
A short description of assay [13]: Cytotoxicity against human MEXF 462NL cells by propidium iodide-based fluorescence assay. The format is functional, cell-based.
Assay [14] is described as follows: Cytotoxicity against human LXFL 529L cells by propidium iodide-based fluorescence assay. It counts as functional, cell-based.
The nature of assay [15]: Cytotoxicity against human RXF 486L cells by propidium iodide-based fluorescence assay. The format is functional, cell-based.
Assay [16] is described as follows: Cytotoxicity against human GXF251L cells by propidium iodide-based fluorescence assay. It counts as functional, cell-based. Particulars: GXF 251L.
Assay [17] can be described thus: Cytotoxicity against human OVXF 899L cells by propidium iodide-based fluorescence assay. It counts as functional, cell-based.

In the case of `COC[C@H](/N=[N+]([O-])/C=C/CCCCC(C)=O)[C@H](C)O` [ELAIOMYCIN D], the zone of inhibition at 50 µg/disc in the assay with Pseudomonas aeruginosa [1], in the assay with Staphylococcus aureus [2], in the assay with Aspergillus terreus, with Aspergillus niger, in the assay with Aspergillus fumigatus and in the assay with Escherichia coli was 0 mm each time. Further, the zone of inhibition at 50 µg/disc (in the assay on Pseudomonas aeruginosa [3]; with Enterococcus faecalis; in [4]; with Mycolicibacterium vaccae; in the assay on Staphylococcus aureus [5]; in the assay on Candida albicans) was 0 mm in each case. The zone of inhibition at 50 µg/disc in the assay on Bacillus subtilis and with Penicillium chrysogenum was 0 mm each time. Also, the GI50 in the assay with HUVEC and in the assay with K562 was over 50 µg/mL each time. In the assay on HeLa, this molecule yielded a CC50 of over 50 µg/mL.
On to `CCCCCC(O)/C=C/[N+]([O-])=N/[C@@H](COC)[C@H](C)O` (stereo partly specified) [ELAIOMYCIN E], for which the zone of inhibition at 50 µg/disc turned out to be 10 mm with Pseudomonas aeruginosa [1]; 0 mm with Staphylococcus aureus [2]; 0 mm in the assay on Aspergillus terreus; 0 mm in the assay on Aspergillus niger; 0 mm in the assay on Aspergillus fumigatus; 0 mm in the assay on Escherichia coli. The zone of inhibition at 50 µg/disc was found to be 0 mm in the assay with Pseudomonas aeruginosa [3]; 10 mm with Enterococcus faecalis; 0 mm in assay [4]; 0 mm with Mycolicibacterium vaccae; 0 mm with Staphylococcus aureus [5]; 0 mm in the assay on Candida albicans. The zone of inhibition at 50 µg/disc with Bacillus subtilis amounted to 10 mm; in the assay with Penicillium chrysogenum, 0 mm. For the same molecule, the GI50 in the assay on HUVEC stood at 31.2 µg/mL (≈ 114 µM); with K562, 30.3 µg/mL (≈ 110 µM). The molecule also had a CC50 with HeLa of over 50 µg/mL.
`CCCCCCCC/[N+]([O-])=N/[C@@H](COC)[C@H](C)O` [ELAIOMYCIN F]: the zone of inhibition at 50 µg/disc in the assay with Pseudomonas aeruginosa [1], in the assay with Staphylococcus aureus [2], in the assay with Aspergillus terreus, in the assay with Aspergillus niger, in the assay on Aspergillus fumigatus and with Escherichia coli was 0 mm each time. Moreover, the zone of inhibition at 50 µg/disc (in the assay on Pseudomonas aeruginosa [3]; in the assay on Enterococcus faecalis; in assay [4]; in the assay on Mycolicibacterium vaccae; in the assay on Staphylococcus aureus [5]; in the assay with Candida albicans) was 0 mm throughout. The zone of inhibition at 50 µg/disc in the assay on Bacillus subtilis and in the assay on Penicillium chrysogenum was 0 mm throughout. Further, the GI50 in the assay on HUVEC and with K562 was over 50 µg/mL throughout. Besides, the CC50 with HeLa is 30.5 µg/mL (≈ 117 µM).
Turning to `COC[C@H](/N=[N+](\[O-])CCCCCCC(C)=O)[C@H](C)O` [ELAIOMYCIN G], the zone of inhibition at 50 µg/disc in the assay with Pseudomonas aeruginosa [1], with Staphylococcus aureus [2], with Aspergillus terreus, in the assay on Aspergillus niger, in the assay with Aspergillus fumigatus and in the assay with Escherichia coli was 0 mm throughout. The zone of inhibition at 50 µg/disc turned out to be 0 mm in the assay on Pseudomonas aeruginosa [3]; 0 mm in the assay with Enterococcus faecalis; 13 mm in assay [4]; 11 mm with Mycolicibacterium vaccae; 0 mm in the assay with Staphylococcus aureus [5]; 0 mm in the assay on Candida albicans. The zone of inhibition at 50 µg/disc with Bacillus subtilis and in the assay on Penicillium chrysogenum was 0 mm each time. Besides, the GI50 in the assay on HUVEC and in the assay with K562 was over 50 µg/mL throughout. The same molecule showed a CC50 with HeLa of over 50 µg/mL.
Regarding `CCCCCCCC/[N+]([O-])=N/[C@@H](COC)C(N)=O` [ELAIOMYCIN H], the zone of inhibition at 50 µg/disc in the assay with Pseudomonas aeruginosa [1] is 0 mm; in the assay with Staphylococcus aureus [2], 0 mm; in the assay on Aspergillus terreus, 15 mm; in the assay on Aspergillus niger it was 0 mm; in the assay on Aspergillus fumigatus, 13 mm; with Escherichia coli, 0 mm. For the same molecule, the zone of inhibition at 50 µg/disc with Pseudomonas aeruginosa [3] is 0 mm; with Enterococcus faecalis it was 0 mm; in [4] it was 14 mm; in the assay on Mycolicibacterium vaccae, 12 mm; with Staphylococcus aureus [5], 0 mm; in the assay with Candida albicans, 0 mm. For the same molecule, the zone of inhibition at 50 µg/disc with Bacillus subtilis and in the assay on Penicillium chrysogenum was 0 mm throughout. The IC50 in [6] turned out to be 3.74 µM; in [7], 8.88 µM; in assay [8] it was 5.99 µM; in assay [9], 8.01 µM; in [10], 5.42 µM; in [11], 1.15 µM. Moreover, the IC50 is 1.2 µM in assay [12]; 3.95 µM in assay [13]; 8.57 µM in assay [14]; 9.49 µM in assay [15]; 4.65 µM in [16]; 9.84 µM in assay [17]. In addition, the GI50 in the assay on HUVEC was 38.2 µg/mL (≈ 147 µM); with K562, 37.5 µg/mL (≈ 145 µM). Further, in the assay with HeLa, half-maximal cytotoxicity (CC50) was put at 40.5 µg/mL (≈ 156 µM).
For the molecule `CCCCCC/C=C\[N+]([O-])=N\[C@@H](COC)[C@H](C)O` [ELAIOMYCIN], the zone of inhibition at 50 µg/disc in the assay with Pseudomonas aeruginosa [1], with Staphylococcus aureus [2], in the assay with Aspergillus terreus, in the assay with Aspergillus niger, in the assay on Aspergillus fumigatus and in the assay on Escherichia coli was 0 mm each time. In addition, the zone of inhibition at 50 µg/disc in the assay with Pseudomonas aeruginosa [3] worked out at 0 mm; in the assay on Enterococcus faecalis, 0 mm; in assay [4], 12 mm; in the assay with Mycolicibacterium vaccae, 14 mm; in the assay with Staphylococcus aureus [5], 0 mm; in the assay with Candida albicans, 0 mm. Besides, the figures for the zone of inhibition at 50 µg/disc in the assay on Bacillus subtilis and with Penicillium chrysogenum were 10 mm and 0 mm, respectively. Moreover, the IC50 in [6] amounted to 10.8 µM; in [7] it was 14.7 µM; in assay [8], 10.2 µM; in [9], 9.21 µM; in assay [10] it was 20.2 µM; in [11], 9.72 µM. Further, the half-maximal inhibitory concentration (IC50) was 9.24 µM in assay [12]; 10.4 µM in [13]; 14.7 µM in assay [14]; over 30 µM in assay [15]; 7.97 µM in assay [16]; 11.8 µM in [17]. Besides, the GI50 was 30.4 µg/mL (≈ 118 µM) with HUVEC and over 50 µg/mL in the assay on K562. Besides, half-maximal cytotoxicity in the assay with HeLa (CC50) was put at 35.1 µg/mL (≈ 136 µM).

The values are drawn from ChEMBL document CHEMBL2150937, “Elaiomycins D-F, antimicrobial and cytotoxic azoxides from Streptomyces sp. strain HKI0708” (J Nat Prod, 2012).
